The source of these data is patent publication US20240025849A1 (MAX DELBRÜCK-CENTRUM FÜR MOLEKULARE MEDIZIN IN DER …, priority 2020, published 2024).

Values joined by “and” are separate entries in the source; they are usually repeats but may differ in a detail not shown here. Equal entries are not always repeated. “Also recorded” adds a separate entry of the source.

Data set [1] deals with primary cultured neonatal microglia. Put plainly: Propidium iodide based proliferation and cell death assay in microglia. Conditions: 2.5 μM C1, 48 hours, unstimulated. As for the experimental part: Primary cultured neonatal microglia. For preparation of cultured neonatal microglia, P0-P3 mice were used. 10 brains were extracted, meninges and cerebellum were removed and put on ice with Hank's balanced salt solution (HBSS). The dissected brains were washed 3 times before adding 400 μL trypsin (0.1 mg/L) and DNAse (5 μg/L) in phosphate buffered saline (PBS). After 2 min of incubation with this solution, the reaction was blocked by adding plain medium. After removal of the medium, 1 mg DNAse was added and the cells were mechanically dissociated, with a Pasteur pipette followed by a glass pipette. The cells were centrifuged for 10 min at 129 g at 4° C. The supernatant was discarded. The pellet was resuspended in plain medium and plated (2.5 brains/flask) in Poly-L-Lysine coated flasks. The cells were washed after 2 days with PBS and incubated for another 7 days in plain medium. […]
Propidium iodide based proliferation and cell death assay. […] The intensity of the propidium iodide signal of the dead cells was measured using a microplate reader. Afterwards, all cells were killed with a 10 min incubation of 10% DMSO and the propidium iodide signal of all cells was measured. […] The percentage of dead cells was calculated by dividing the dead-cell-signal by the all-cell-signal. Proliferation was calculated as a relative value to the plain medium control.

The subject of data set [2] is bone marrow derived macrophages. Kind of data set: NO release in bone marrow derived macrophages, Griess assay. The format is cell-based, mouse. Conditions: for NO release: 0.25 μM C1; for NO release, % of positive control: 2.5 μM C1. Here is the method:
Primary cultured macrophages. Bone marrow macrophages were isolated from C57BL/6 adult mice (P49-56) as previously described (Marim et al., 2010). In summary, mice were killed by cervical dislocation and the femurs were removed by cutting through the tibia near the pelvic bone and below the knee. Any muscle connected to the bone was carefully removed. Ice cold sterile PBS was slowly flushed through the bone and the contents were collected in a sterile 15 mL polypropylene tube on ice. After centrifugation for 10 min at 200 g at 4° C., red blood cells were lysed by adding 3-10 mL ammonium chloride solution. After a 3-5 min recovery period, the suspension was centrifuged for 10 min at 200 g at 4° C. and the supernatant was removed. Cells were plated in a 10 cm dish with plain medium containing 10 ng/mL M-CSF and cultured for 7 days to allow differentiation. 50 000 cells were plated with 200 μL medium per well in a 96 well plate.
Griess assay. Cells were seeded according to the protocols described above, after compounds and stimuli were added, 100 μl of supernatant was transferred into a new 96 well plate and 100 μl freshly mixed Griess reagent were added. Griess reagent was composed of reagent A (100 mg Naphthylethylene in 50 ml aqua dest.) and reagent B (1 g Sulfanilamide, […] H3PO4 (85%) in 44 mL aqua dest.) mixed 1:1. The solution was carefully mixed and the absorbance was determined in a microplate reader at a wavelength of 550 nm.
Microglia and macrophages share many of their immune properties, therefore the inventors evaluated the impact of C1 on the release of NO and the pro-inflammatory cytokines IL1β, IL6, and TNFα on bone marrow derived macrophages (Amici et al., 2017; Li and Barres, 2017). Bone marrow derived macrophages were isolated from adult mice and pre-treated for 1 hour with C1 (0.025 μM, 0.25 μM, or 2.5 μM), its corresponding concentration of DMSO (1.25×10-5, 12.5×10-5, or 125×10-5 v/v), or plain medium before a stimulus was added. The NO release was measured after stimulation with either 1 μg/ml LPS for 48 hours (FIG. 2-1A), 100 μg/mL PolyIC for 24 hours (FIG. 2-1B) or 100 ng/ml IFNγ for 48 hours (FIG. 2-1C). […] DMSO had no effect on the NO release in bone marrow derived macrophages stimulated with LPS or PolyIC (FIGS. 2-1A and B). However, it reduced the IFNγ induced NO release in these cells independently of the applied dose (1.25×10-5 v/v: 85%, p<0.0043; 12.5×10-5 v/v: 83%, p<0.0016; 125×10-5 v/v: 85%, p<0.0046, FIG. 2-1C), similar to the effect observed in microglia when stimulated with IFNγ (FIG. 2A).
Background: Griess reagent forms a coloured azo dye with nitrite.

In the next data set the test system is Microglial cells. Put plainly: Microchemotaxis assay (Boyden chamber): chemotaxis and motility. The data set is classed as cell-based, mouse. Here is the method: Microchemotaxis assay. The effect of the compound on directed migration and general motility was tested using a 48-well microchemotaxis Boyden chamber (Neuroprobe, Gaithersburg, USA). Upper and lower wells were separated by polycarbonate filter (8 μm pore size; Poretics). Microglial cells (2-4×10^4 cells) in 50 μl plain medium were added to the upper compartment. In addition, 2.5 μM of compound in DMSO, 125×10-5 v/v DMSO respectively, and/or 100 μM ATP were added to the upper and/or lower chamber, as shown in FIG. 3A. Plain medium was used as a control. The chamber was incubated at 37° C. and 5% CO2 for 6 h. Cells remaining on the upper surface of the membrane were removed by wiping, and cells in the lower compartment were fixed in methanol for 10 min and subjected to Diff-Quik stain (Medion Grifols Diagnostics AG, Dudingen, Switzerland). The rate of microglial migration was calculated by counting cells in four random fields of each well using a 20×bright-field objective. All data were normalised to ATP induced chemotaxis.

For the next data set, the target named is T1, eNOS (Homo sapiens, UniProt P29474).
T1 construct: Eurofins (contract assay service)
Kind of data set: NOS enzyme activity assay (Eurofins), eNOS. The data set is classed as biochemical. Conditions: C1: 1 nM and 1 μM; 30 min reaction.

Method for eNOS: To evaluate the direct influence of cl on the different isoforms of NOS, an enzyme activity assay was conducted by Eurofins. C1 was mixed with the enzyme buffer, which included co-factors and substrates and by adding the enzyme the reaction was initiated. After 30 min the reaction was stopped, and NO concentration was measured. The results are normalised to positive control performed without any additional compounds and are presented as percentage in inhibition. […] To test the compounds effect on iNOS a concentration range from 1 μM up to 5 μM were applied (1, 10, 100 μM, 1, 10, 100 nM, 1, and 5 μM), and for testing eNOS and nNOS 1 nM and 1 μM were applied.

Take `COc1ccc(NC(=O)C(NC(=O)C2CCCN2C(=O)OCc2ccccc2)c2ccc(OC)cc2)cc1` (stereo not shown) [C1]: the “percentage of dead cells in microglia” value in data set [1] is 8.49%. Moreover, the NO release entry in data set [2] (1 μg/mL LPS 48 hours) is “reduced the NO release significantly”; in data set [2] (100 μg/mL PolyIC 24 hours) it was “significant decrease”. In addition, the “NO release, % of positive control” value in data set [2] (100 ng/mL IFNγ 48 hours) was 18%; in data set [2] (100 μg/mL PolyIC 24 hours), 15.01±10.32% and 15%. The “NO release, dose dependence” value in data set [2] (0.025, 0.25, 2.5 μM C1, LPS, PolyIC or IFNγ) is listed as “reduced the NO release in a dose dependent manner”. The ATP induced motility entry in the data set on Microglial cells (2.5 μM C1, 100 μM ATP) was “neither changed; also recorded: not altered”. Also, the microglial motility entry in the data set with Microglial cells (2.5 μM C1 on both sides of the chamber) is given as “reduced in the presence of C1 significantly compared to plain medium (p=0.0018) but not to DMSO; also recorded: did not significantly affect motility compared to the DMSO control, however it did, when compared to the plain medium control”. Besides, in the data set on Microglial cells (gradient of 2.5 μM C1, 6 h), the “chemotaxis (cells migrating towards C1)” value is given as “increased chemotaxis significantly; also recorded: significantly higher”. Also, the “enzymatic activity of eNOS” value at eNOS is “does not interfere”.
